Source: US20210380606A1, “5-AZAINDAZOLE DERIVATIVES AS ADENOSINE RECEPTOR ANTAGONISTS” (Merck Patent GmbH, priority 2018, published 2021)
Read-outs that look alike come from different tables or passages of the source.

Legend:
Format in all cases: cell-based
mouse Pan T cells = assay: Mouse T cell IL-2 rescue from NECA (CD3/CD28-activated Pan T cells, ELISA); details: 24 h
From the text: Adenosine (Ado) in tumor microenvironment can inhibit T cell activity by signaling through A2A receptors and suppress cytokine secretion by T cells. […] Potential A2A antagonists or A2A/A2B dual antagonists can rescue T cells from this inhibition. Herein, we describe the in vitro system we established using Pan T cells from mouse spleens to screen potential A2A antagonists or A2A/A2B dual antagonists for their activity. The method described involves the use of CD3/CD28 pre-coated beads to stimulate Pan T cells purified from mouse splenocytes, combined with the addition of A2A agonist along with potential A2A or A2A/A2B dual antagonists to evaluate potentiation of T cell cytokine production.
Briefly, mouse Pan T cells are purified from spleens of BALB/c mice using Pan T cell isolation kit Mouse II (MACS Miltenyi biotech Cat #Order no. 130-095-130) according to manufacturer's protocol. The purified T cells are seeded in Nunc™ 96-Well Polystyrene Round Bottom Microwell Plates in RPMI medium with 10% heat inactivated fetal bovine serum. The cells are rested at 37° C. for 1 h before activating with CD3/CD28 pre-coated beads (Dynabeads™ Mouse T-Activator CD3/CD28; Cat #11456D). After 30 min the cells are treated with varying doses of test antagonist(s). […] After 24 h incubation IL-2 levels in the supernatants are measured by ELISAs according to manufacturer's protocol (R&D systems Cat #DY402 (IL-2)). Once the concentrations are calculated, the difference of cytokine concentration of DMSO control and agonist alone control is calculated and the percentage of rescue by each concentration of antagonist is calculated by using Microsoft Excel. These percentages of cytokine rescue in a dose dependent manner of antagonist is plotted in GraphPad Prism software and IC50 is calculated.

human A2A receptors = biological target: T1, human A2A receptors (Homo sapiens, UniProt P29274); assay: Functional human A2A receptor activity, recombinant HEK293 cells, cAMP (HTRF)
T1 construct: expressed in transfected cells; host or cells: HEK293
T1 sequence (P29274 whole entry): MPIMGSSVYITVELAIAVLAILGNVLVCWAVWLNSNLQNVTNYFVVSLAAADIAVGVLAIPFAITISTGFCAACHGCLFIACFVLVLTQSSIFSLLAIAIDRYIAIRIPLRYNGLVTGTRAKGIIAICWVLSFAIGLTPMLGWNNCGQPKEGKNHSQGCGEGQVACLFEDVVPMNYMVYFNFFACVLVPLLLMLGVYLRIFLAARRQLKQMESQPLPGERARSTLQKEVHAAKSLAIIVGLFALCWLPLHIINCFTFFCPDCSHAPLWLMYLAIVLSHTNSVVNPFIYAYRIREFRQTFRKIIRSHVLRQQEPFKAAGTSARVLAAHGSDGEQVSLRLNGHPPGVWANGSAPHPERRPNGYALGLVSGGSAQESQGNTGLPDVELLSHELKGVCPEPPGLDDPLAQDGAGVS
How it was run: (§1)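 cAMP accumulation, determined by HTRF after a 15 min incubation, served as the functional measure of receptor activity.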

[1] = biological target: T2, Gs-coupled human A2A receptor (Homo sapiens, UniProt P29274); assay: Human T cell assay, endogenous A2A receptor, cAMP (HTRF)
T2 construct: The endogenous functional activity of the Gs-coupled human A2A receptor was measured in T cells; endogenous in cells; host or cells: human pan T cells isolated from PBMC of fresh whole blood
T2 sequence (P29274 whole entry): as above
Procedure: The endogenous functional activity of the Gs-coupled human A2A receptor was measured in T cells, where this receptor is highly expressed. Determination of receptor activity was done by quantification of cAMP, which is a second messenger for adenosine receptors.
In short, human pan T cells were isolated from human PBMC (MACS Pan T Cell Isolation Kit, Miltenyi Biotec) that have been derived from fresh whole blood. The T cells were seeded in 384-well microtiter plates and treated with test compounds. […] Finally, HTRF reagents (cAMP Femto Kit, CisBio) were added to the wells, and after 1 h cellular cAMP levels were determined using the ENVISION (Perkin Elmer) plate reader.
The obtained raw data were normalized against the inhibitor control and the neutral control (DMSO) and the normalized data were fitted using Genedata Screener software.

human A2B receptors = biological target: T3, human A2B receptors (Homo sapiens, UniProt P29275); assay: Functional human A2B receptor activity, recombinant HEK293 cells, cAMP (HTRF)
T3 construct: expressed in transfected cells; host or cells: HEK293
T3 sequence (P29275 1-332): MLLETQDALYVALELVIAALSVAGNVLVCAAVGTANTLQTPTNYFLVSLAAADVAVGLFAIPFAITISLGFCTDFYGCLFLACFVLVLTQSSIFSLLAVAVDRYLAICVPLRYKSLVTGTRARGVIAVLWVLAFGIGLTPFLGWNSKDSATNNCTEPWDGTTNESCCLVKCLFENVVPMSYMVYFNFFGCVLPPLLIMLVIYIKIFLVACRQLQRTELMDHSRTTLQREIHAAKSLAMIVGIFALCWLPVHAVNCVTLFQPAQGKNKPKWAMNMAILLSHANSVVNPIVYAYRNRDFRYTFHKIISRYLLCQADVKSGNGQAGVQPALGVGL
How it was run: as §1

Human T cell = Human T cell IL-2; details: human T cells
[2] = read-out: Functional A2A receptor activity, HEK293, cAMP, IC50
[3] = read-out: Functional A2B receptor activity HEK293, cAMP IC50

IC50 (mouse Pan T cells)	IC50 (human A2A receptors; read-out: A2A (Category))	IC50 [1]	IC50 (human A2B receptors; read-out: A2B (Category))	IC50 (Human T cell)	IC50 (human A2A receptors; [2])	IC50 (human A2B receptors; [3])	SMILES
< 1000 nM	< 100 nM	< 100 nM	< 100 nM	< 100 nM			O=C(c1cc2c(cn1)c(-c1coc3ccc(F)cc13)nn2CC(F)(F)F)N1CCCOCC1 [Compound 109, [3-(5-fluorobenzofuran-3-yl)-1-(2,2,2-trifluoroethyl)pyrazolo[4,3-c]pyridin-6-yl]-(1,4-oxazepan-4-yl)methanone]
< 1000 nM	< 100 nM	< 100 nM	< 100 nM	< 100 nM			O=C(c1cc2c(cn1)c(-c1coc3ccccc13)nn2CC(F)(F)F)N1CCOCC(O)C1 (stereo not shown) [Compound 224, [3-(benzofuran-3-yl)-1-(2,2,2-trifluoroethyl)pyrazolo[4,3-c]pyridin-6-yl]-(6-hydroxy-1,4-oxazepan-4-yl)methanone]
	< 100 nM		< 1000 nM				NC(=O)c1ccc2ncc(-c3nn(CC(F)(F)F)c4cc(C(=O)N5CCCOCC5)ncc34)n2c1 [Compound 246, 3-[6-(1,4-Oxazepane-4-carbonyl)-1-(2,2,2-trifluoro-ethyl)-1H-pyrazolo[4,3-c]pyridin-3-yl]-imidazo[1,2-a]pyridine-6-carboxylic acid amide]
	< 100 nM		< 1000 nM				NC(=O)c1ccc2ncc(-c3nn(CC(F)(F)F)c4cc(C(=O)N5CC6CCC(C5)O6)ncc34)n2c1 [Compound 247, 3-[6-(8-Oxa-3-aza-bicyclo[3.2.1]octane-3-carbonyl)-1-(2,2,2-trifluoro-ethyl)-1H-pyrazolo[4,3-c]pyridin-3-yl]-imidazo[1,2-a]pyridine-6-carboxylic acid amide]
	< 100 nM		< 1000 nM				O=C(c1cc2c(cn1)c(-c1cnn3ccncc13)nn2CC(F)(F)F)N1CCCCCC1 [Compound 248, Azepan-1-yl-[3-pyrazolo[1,5-a]pyrazin-3-yl-1-(2,2,2-trifluoro-ethyl)-1H-pyrazolo[4,3-c]pyridin-6-yl]-methanone]
	< 100 nM		< 1000 nM				O=C(c1cc2c(cn1)c(-c1cnn3ccncc13)nn2CC(F)(F)F)N1CCCOCC1 [Compound 249, 1,4-Oxazepan-4-yl-[3-pyrazolo[1,5-a]pyrazin-3-yl-1-(2,2,2-trifluoro-ethyl)-1H-pyrazolo[4,3-c]pyridin-6-yl]-methanone]
	< 100 nM		< 1000 nM				CS(=O)(=O)Cn1nc(-c2cnn3ccncc23)c2cnc(C(=O)N3CCCOCC3)cc21 [Compound 250, (1-Methanesulfonylmethyl-3-pyrazolo[1,5-a]pyrazin-3-yl-1H-pyrazolo[4,3-c]pyridin-6-yl)-(1,4-oxazepan-4-yl)methanone]
	< 100 nM		< 1000 nM				O=C(c1cc2c(cn1)c(-n1cnc3ccccc31)nn2CC(F)(F)F)N1CCCOCC1 [Compound 251, [3-(benzimidazol-1-yl)-1-(2,2,2-trifluoroethyl)pyrazolo[4,3-c]pyridin-6-yl]-(1,4-oxazepan-4-yl)methanone]
	< 100 nM		< 100 nM				O=C(c1cc2c(cn1)c(-n1cnc3ccc(F)cc31)nn2CC(F)(F)F)N1CCCOCC1 [Compound 252, [3-(6-fluorobenzimidazol-1-yl)-1-(2,2,2-trifluoroethyl)pyrazolo[4,3-c]pyridin-6-yl]-(1,4-oxazepan-4-yl)methanone]
	< 100 nM		< 1000 nM				[2H]C1([2H])COCCN(C(=O)c2cc3c(cn2)c(-c2c[nH]c4ccccc24)nn3CC(F)(F)F)C1 [Example 242, (6,6-dideuterio-1,4-oxazepan-4-yl)-[3-(1H-indol-3-yl)-1-(2,2,2-trifluoroethyl)pyrazolo[4,3-c]pyridin-6-yl]methanone]
					< 100 nM	< 1000 nM	O=C(c1ccc2c(-c3cnc4ccc(F)cn34)nn(CC(F)(F)F)c2c1)N1CCCCCC1 [analogue to No. 44, reference compound]
					< 100 nM	> 1000 nM	O=C(c1ccc2c(-c3cnc4ccc(Cl)cn34)nn(CC(F)(F)F)c2c1)N1CCCCCC1 [analogue to No. 48, reference compound]
					< 100 nM	< 1000 nM	O=C(c1ccc2c(-c3cnc4c(F)cc(F)cn34)nn(CC(F)(F)F)c2c1)N1CCCCCC1 [analogue to No. 60, reference compound]

SMILES	IC50 (mouse Pan T cells)	IC50 (human A2A receptors; read-out: A2A (Category))	IC50 [1]	IC50 (human A2B receptors; read-out: A2B (Category))	IC50 (Human T cell)	IC50 (human A2A receptors; [2])	IC50 (human A2B receptors; [3])
O=C(c1cc2c(cn1)c(-c1cnc3c(F)cccn13)nn2CC(F)(F)F)N1[C@@H]2CC[C@H]1C[C@@H](O)C2 [Compound 85, [3-(8-fluoroimidazo[1,2-a]pyridin-3-yl)-1-(2,2,2-trifluoroethyl)pyrazolo[4,3-c]pyridin-6-yl]-(3-endo-hydroxy-8-azabicyclo[3.2.1]octan-8-yl)methanone]	< 100 nM	< 100 nM	< 100 nM	< 100 nM	< 1000 nM		
